Experimental data reported in ChEMBL document CHEMBL2396562, “Synthesis and SAR of potent and selective tetrahydropyrazinoisoquinolinone 5-HT(2C) receptor agonists” (Bioorg Med Chem Lett, 2013).

Tests used:
in vivo [1] = conditions: Sprague-Dawley, rat, brain/plasma, po, 10 mg/kg
in vivo [2] = conditions: Sprague-Dawley, rat, po, 10 mg/kg
in vivo [3] = conditions: Sprague-Dawley, rat, po, 10 mg/kg; remark: listed apart in the source

Structure (SMILES): CCc1cccc2c1C[C@@H]1CNCCN1C2=O
- Kp (in vivo [1]): 3.9
- Cmax (in vivo [2]): 3.62 µM
- AUC(0-t) at 4 h (in vivo [3]): 9.64 µM·h
